Series [1] can be described thus: Toxicity in patients, graded by NCI CTC version 2.0. In kind it is in vivo, human.
In a further series the test system is G1/G0 growth arrest. The settings on record: cited from earlier work.
Series [2] concerns acetylated histones H3 and H4. Description: Histone H3 or H4 acetylation in PBMC, summary over patients. In kind it is in vivo, human.
The conditions of series [3]: human, in vivo, 400 mg/kg/day.
The conditions of series [4]: intravenous administration for 5 days, refractory solid tumors; cited from earlier work.
The test system of a further series is advanced solid tumor. Conditions: 5-AC 20 – 25 mg/m^2 daily for 10 days; cited from earlier work.
For the next series, the system named is Epstein Barr Virus (EBV). Description: EBV viral load in PBMC by real-time PCR. The series is classed as in vivo, human. Conditions: after 5-AC treatment. (Real-time PCR tracks product formation cycle by cycle.)
The next series relates to DNMT. The settings on record: plasma concentration reached only with 5-AC 75 mg/m^2/d; cited from earlier work.
Series [5] relates to DNA methyltransferase (DNMT). Description: DNA methyltransferase enzyme activity in paired tumor biopsies. The series is classed as in vivo, human. The settings on record: one patient with hepatocellular carcinoma; 5-AC 15 mg/m^2/d for 14 days.
The nature of series [6]: Plasma pharmacokinetics of PB and metabolites PA and PG. Conditions: PB continuous infusion over 24 hours, 400 mg/kg/d, Overall.

The text below walks through data of paper PMC2845396 (Clinical cancer research : an official journal of the …, 2009).

Bounds are passed on as bounds.

Consider `O=C([O-])CCCc1ccccc1.[Na+]` [PB, sodium phenylbutyrate], for which the “confusion, G 3 (CTC grade 3), patients” value in series [1] (human, in vivo) came to 1. In addition, the “patients with neuro-cortical toxicity attributable to PB” value in series [1] (of 27 patients, PB 400 mg/kg/day, intermittent or continuous 7 day infusion) was 3. Moreover, in the series on G1/G0 growth arrest, the “time to G1/G0 growth arrest” value is at most 96 h. Further, the “patients with increased acetylation” value in [2] (PB infused for just 24 hours, Four of 8 patients) amounted to 50%; in series [2] (dose schedule B, PB infused for 7 days, 3 of 5 patients), 60%. In addition, the distribution volume (Vd) (commonly a proportionality between amount in the body and measured concentration, not a real space) in series [3] is recorded as 14.0 ± 8.0 L. Moreover, the maximum tolerated dose in series [4] is listed as 410 mg/kg/day.

As for `Nc1ncn([C@@H]2O[C@H](CO)[C@@H](O)[C@H]2O)c(=O)n1` [5-AC, 5-azacytidine], the “duration of stable disease” value in the series with advanced solid tumor is on record as 4 – 8 months. In addition, the “patients with reduced viral load” value in the series on Epstein Barr Virus (EBV) is given as “Three”. The “concentration shown in vitro to cause DNMT inhibition” value in the series on DNMT is 5 µM. The “inhibition of DNMT activity” value in series [5] is 75% and about 75%.

`O=C(O)Cc1ccccc1` [PA, phenylacetic acid]: the Tmax in series [6] (mean (range)) is recorded as 25.30 (23.83–27.98) h. In [6] (mean ± SD), the “AUC[INF]” value is 26680 ± 11236 µM·h and the Cl was 9.5 ± 7.6 L/h. Also, the Cmax (usually the maximum level reached in the sampled fluid or tissue) in [6] (plasma, mean ± SD) stood at 1400 ± 504 µM.
